Results reported in patent US6906098B2, “Mixed steroidal 1,2,4,5-tetraoxane compounds and methods of making and using thereof” (priority 2002, dated 2005).
≈ marks a conversion by molar mass, not a printed value.

Experiments:
[1] = tested on: Plasmodium falciparum chloroquine-susceptible strain D6; experiment: In vitro antimalarial drug susceptibility assay (radiolabeled hypoxanthine incorporation), strain D6; type: cell-based; details: Plasmodium falciparum, D6, 66 h, read-out: Strain D6 IC50, growth inhibition, chloroquine-susceptible strain D6, 66 h incubation
[2] = tested on: Plasmodium falciparum chloroquine-resistant strain W2; experiment: microbe, parasite or virus in culture; type: cell-based; details: Plasmodium falciparum, W2, 66 h, read-out: Strain W2 IC50, growth inhibition, chloroquine-resistant strain W2, 66 h incubation
[3] = tested on: D6 and W2 P. falciparum clones; type: cell-based, Plasmodium falciparum; details: IC50 (W2)/IC50 (D6) ratio
[4] = tested on: Mycobacterium tuberculosis H37Rv (ATCC 27294); experiment: Primary screen, Microplate Alamar Blue Assay (MABA), percent inhibition; type: cell-based; details: Mycobacterium tuberculosis, Table 5; Alamar assay, primary screening at 6.25 μg/ml; read-out: % Inhib
Method in brief: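 Single-concentration screen at 6.25 μg/ml (or molar equivalent of the heaviest congener in a series) against H37Rv grown in BACTEC 12B medium. Growth read by Microplate Alamar Blue Assay, reported as percent inhibition.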

M. tuberculosis H37Rv = experiment: Minimum inhibitory concentration (MIC) in the MABA; type: cell-based, Mycobacterium tuberculosis; details: Mycobacterium tuberculosis, H37RV, Table 5; Alamar assay, M. tuberculosis H37Rv; read-out: MIC
Method in brief: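 Run under the NIAID TAACF screening program against M. tuberculosis by fluorescence read-out. MIC taken as the lowest concentration giving 90% reduction in fluorescence relative to controls.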

[5] = tested on: 60 human tumor cell lines; experiment: DTP Human Tumor Cell Line Screen, full panel; type: cell-based; details: range over 60 cell lines, after 48 h, read-out: LC50 (the source's name)
Protocol: In preliminary tests, four compounds (1B14a, 1C44, 1C45, and 1C46) were chosen by NIH-NCI for in vitro screening. See Drug discovery and development program, National Cancer Institute, Bethesda, (NCI), http://dtp.nci.nih.gov. All tetraoxanes were evaluated in the 3-cell line (lung—NCI-H460, breast—MCF7, CNS-SF-268) one dose primary anticancer assay: growth percentage after 48 hours, at 100 μM concentration of tested compound. Two compounds were eliminated at this step (1B14a and 1C46), while the acid 1C44 and primary amide 1C45 were evaluated against the full panel of 60 human tumor cell lines starting with 10^−4 M concentration of investigated compounds.
The activity of numerous compounds of the present invention against various cancer cell lines was submitted to the Developmental Therapeutics Program (DTP) at the National Cancer Institute (NCI) of the National Institutes of Health (NIH) for screening.
The DTP Human Tumor Cell Line Screen utilizes 60 different human tumor cell lines, representing leukemia, melanoma and cancers of the lung, colon, brain, ovary, breast, prostate, and kidney according to conventional methods known in the art. […]

[6] = tested on: standard panel of 12 tumor cell lines in hollow fibers (IP and SC implants); experiment: Hollow Fiber Assay; type: in vivo, mice
Protocol: Generally, as a preliminary in vivo screening tool, the following assay is conducted. A standard panel of 12 tumor cell lines were used for the routine hollow fiber screening of the in vitro activities. These include NCI-H23, NCI-H522, MDA-MB-231, MDA-MB-435, SW-620, COLO 205, LOX, UACC-62, OVCAR-3, OVCAR-5, U251 and SF-295 according to conventional methods known in the art. See e.g. Hollingshead, M., et al. (1995) Life Sciences 57:131-141, which is herein incorporated by reference. The cell lines are cultivated in RPMI-1640 containing 10% FBS and 2 mM glutamine. On the day preceeding hollow fiber preparation, the cells are given a supplementation of fresh medium to maintain log phase growth. […] On the day of implantation, samples of each tumor cell line preparation are quantitated for viable cell mass by a stable endpoint MTT assay so that the time zero cell mass is known. […] The optical density of each sample is determined spectrophotometrically at 540 nm and the mean of each treatment group is calculated. The percent net growth for each cell line in each treatment group is calculated and compared to the percent net growth in the vehicle treated controls.
A 50% or greater reduction in percent net growth in the treated samples compared to the vehicle control samples is considered a positive result. […] A compound is referred for xenograft testing if it has a combined IP+SC score of 20 or greater, a SC score of 8 or greater, or produces cell kill of any cell line at either dose level evaluated.

[7] = tested on: red blood cell (RBC) membrane; experiment: Hemolytic activity test; details: initial experiments

## COC(=O)CCC(C)[C@H]1CCC2C3C(C[C@H](OC(C)=O)[C@@]21C)[C@@]1(C)CCC2(C[C@H]1C[C@H]3OC(C)=O)OOC1(CCCCCCC1)OO2 (stereo partly drawn) [8c/1B11, Methyl 7α,12α-diacetoxy-5β-cholan-24-oate-3-spiro-6′-(1′,2′,4′,5′-tetraoxacyclohexane)-3′-spirocyclooctane]
[1]
  IC50: 0.0321 µg/mL (≈ 0.0484 µM)
[2]
  IC50: 0.0133 µg/mL (≈ 0.02 µM)
[3]
  Resistance Index: 0.41
[4]
  inhibition at 6.25 µg/mL: 0%
M. tuberculosis H37Rv
  MIC: > 6.25 µg/mL
[5]
  CC50: > 100 µM

## CCCNC(=O)CCC(C)[C@H]1CCC2C3C(C[C@H](OC(C)=O)[C@@]21C)[C@@]1(C)CCC2(C[C@H]1C[C@H]3OC(C)=O)OOC1(CCCCC1)OO2 (stereo partly drawn) [11/1C20, N-(n-Propyl)-7α,12α-diacetoxy-5β-cholan-24-amide-3-spiro-6′-(1′,2′,4′,5′-tetraoxacyclohexane)-3′-spirocyclohexane]
[1]
  IC50: 0.00977 µg/mL (≈ 0.0148 µM)
[2]
  IC50: 0.0045 µg/mL (≈ 0.0068 µM)
[3]
  Resistance Index: 0.46
[4]
  inhibition at 6.25 µg/mL: 88%
M. tuberculosis H37Rv
  MIC: > 6.25 µg/mL
[6]; combined IP+SC, maximum possible 96
  Total Score: 20
[6]; intraperitoneal implants, agent by intraperitoneal injection at 2 dose levels, daily for 4 days
  IP score: 18
[6]; subcutaneous implants
  SC score: 2
[7]
  red blood cell (RBC) membrane lysis: no red blood cell (RBC) membrane lysis
